Data published in patent US9963448B2, “Bicyclic inhibitors of PAD4” (Padlock Therapeutics, Inc., priority 2015, dated 2018).
pIC50: −log10 of the molar value. Counter-ions that a name gives are not always drawn. Like-named read-outs stand apart in the source and are kept apart here.

How the values were obtained:
hPAD4 = hPAD4 (Homo sapiens, UniProt Q9UM07); assay: hPAD4 RFMS (RapidFire mass spectrometry) PAD4 inhibition assay; format: biochemical; conditions: hPAD4 enzyme, RFMS readout; for IC50: read-out: hPAD4 RFMS pIC50 (converted); for pIC50: read-out: hPAD4 RFMS IC50;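 as to hPAD4 RFMS pIC50: grade E means pIC50 at most 4 and F means pIC50 4.0 to 5.0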
Protocol: (§1) Compounds of the present invention were assayed as inhibitors of PAD4 using the assay protocol described below.
(§2) Compound stock solutions were stored at RT. […] Final assay conditions were as follows:
(§3) Total incubation time: 65 mins at 37° C.
(§4) Stop solution: 40 μl 5% TCA in ACN
(§5) The compound numbers correspond to the compound numbers in Table 1. […] The term pIC50=−log(IC50). […] “NA” stands for “not assayed.”

mPAD4 = mPAD4 (Mus musculus, UniProt Q9Z183); assay: mPAD4 RFMS PAD4 inhibition assay; format: biochemical; conditions: mPAD4, RFMS readout; for IC50: read-out: mPAD4 RFMS pIC50 (converted); for pIC50: read-out: mPAD4 RFMS IC50;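 as to mPAD4 RFMS pIC50: grade E means pIC50 at most 4 and F means pIC50 4.0 to 5.0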
Protocol: as §1, §2, §3, §4, §5

hPAD4, sequence (Q9UM07 whole entry): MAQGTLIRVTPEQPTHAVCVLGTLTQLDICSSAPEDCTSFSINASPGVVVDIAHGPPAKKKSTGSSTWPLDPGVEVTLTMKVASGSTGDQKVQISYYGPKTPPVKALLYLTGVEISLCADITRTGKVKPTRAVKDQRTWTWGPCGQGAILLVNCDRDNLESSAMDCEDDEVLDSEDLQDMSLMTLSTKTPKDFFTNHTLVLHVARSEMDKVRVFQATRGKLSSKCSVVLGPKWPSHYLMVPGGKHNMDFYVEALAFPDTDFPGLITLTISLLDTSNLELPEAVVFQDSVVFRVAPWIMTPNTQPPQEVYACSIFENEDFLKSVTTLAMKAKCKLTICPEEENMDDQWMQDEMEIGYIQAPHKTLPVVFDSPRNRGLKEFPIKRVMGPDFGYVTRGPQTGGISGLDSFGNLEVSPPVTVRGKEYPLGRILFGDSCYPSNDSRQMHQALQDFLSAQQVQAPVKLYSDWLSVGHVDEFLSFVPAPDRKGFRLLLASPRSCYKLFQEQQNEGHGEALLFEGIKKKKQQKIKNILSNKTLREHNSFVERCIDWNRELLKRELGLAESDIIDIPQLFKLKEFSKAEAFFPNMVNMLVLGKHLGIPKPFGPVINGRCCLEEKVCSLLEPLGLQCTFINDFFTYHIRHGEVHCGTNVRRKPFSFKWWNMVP
mPAD4, sequence (Q9Z183 whole entry): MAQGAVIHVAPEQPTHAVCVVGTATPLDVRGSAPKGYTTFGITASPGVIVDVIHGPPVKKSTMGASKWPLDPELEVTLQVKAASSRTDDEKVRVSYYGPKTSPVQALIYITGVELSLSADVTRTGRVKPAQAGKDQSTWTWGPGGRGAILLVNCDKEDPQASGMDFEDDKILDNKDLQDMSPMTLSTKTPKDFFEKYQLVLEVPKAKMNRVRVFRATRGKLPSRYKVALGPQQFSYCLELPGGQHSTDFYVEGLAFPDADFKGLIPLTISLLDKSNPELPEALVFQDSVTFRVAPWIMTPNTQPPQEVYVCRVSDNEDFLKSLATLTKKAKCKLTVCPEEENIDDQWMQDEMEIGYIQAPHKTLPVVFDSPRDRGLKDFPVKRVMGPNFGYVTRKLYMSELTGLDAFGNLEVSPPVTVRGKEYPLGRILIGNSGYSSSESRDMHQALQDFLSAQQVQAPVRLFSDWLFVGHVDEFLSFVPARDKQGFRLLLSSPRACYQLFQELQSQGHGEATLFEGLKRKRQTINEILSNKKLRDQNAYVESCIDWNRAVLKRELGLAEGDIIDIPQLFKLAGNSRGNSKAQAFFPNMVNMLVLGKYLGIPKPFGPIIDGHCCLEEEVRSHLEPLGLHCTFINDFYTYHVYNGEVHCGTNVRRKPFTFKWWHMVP

Row | SMILES | IC50 (hPAD4; pIC50=−log(IC50)) [nM] | pIC50 (hPAD4) | IC50 (mPAD4; pIC50=−log(IC50)) [nM] | pIC50 (mPAD4) | hPAD4 RFMS pIC50 (hPAD4; pIC50=−log(IC50)) | mPAD4 RFMS pIC50 (mPAD4; pIC50=−log(IC50))
1 | COc1ccc2cc(-c3nc4cc(C(=O)N5CCC[C@@H](N)C5)cc(OC)c4n3CC(F)F)n(CC3CC3)c2n1 [Compound I-94, (3R)-1-{2-[1-(cyclopropylmethyl)-6-methoxy-1H-pyrrolo[2,3-b]pyridin-2-yl]-1-(2,2-difluoroethyl)-7-methoxy-1H-1,3-benzodiazole-5-carbonyl}piperidin-3-amine] | < 1000 | > 6.00 | < 1000 | > 6.00 | – | –
2 | COc1ccc2cc(-c3nc4cc(C(=O)N5CCC[C@@H](N)C5)cc(OC(F)F)c4n3C)n(CC3CC3)c2n1 [Compound I-104, (3R)-1-{2-[1-(cyclopropylmethyl)-6-methoxy-1H-pyrrolo[2,3-b]pyridin-2-yl]-7-(difluoromethoxy)-1-methyl-1H-1,3-benzodiazole-5-carbonyl}piperidin-3-amine] | < 1000 | > 6.00 | < 1000 | > 6.00 | – | –
3 | CO[C@H]1CCN(C(=O)c2cc(OC(F)F)c3c(c2)nc(-c2cc4cccnc4n2CC2CC2)n3C)C[C@H]1N [Compound I-134] | 1000 to 10000 | 5.30 to 6.00 | < 1000 | > 6.00 | – | –
4 | COc1cc(C(=O)N2CC3COCC3(CN)C2)cc2nc(-c3cc4cccnc4n3CC3CC3)n(C)c12 (racemic) [Compound I-96] | 10000 to 100000 | < 5.00 | 10000 to 100000 | < 5.00 | – | –
5 | COc1cc(C(=O)N2CCOC3(CNC3)C2)cc2nc(-c3cc4cccnc4n3CC3CC3)n(C)c12 [Compound I-122] | – | < 5.00 | > 100000 | < 5.00 | E/F | –
6 | Cc1cc2c(cc1C(=O)N1CCC[C@@H](N)C1)nc(-c1cc3cccnc3n1CC1CC1)n2C [Compound I-103, (3R)-1-{2-[1-(cyclopropylmethyl)-1H-pyrrolo[2,3-b]pyridin-2-yl]-1,6-dimethyl-1H-1,3-benzodiazole-5-carbonyl}piperidin-3-amine hydrochloride] | 10000 to 100000 | < 5.00 | 10000 to 100000 | < 5.00 | – | –
7 | COc1cc(C(=O)N2CCC[C@@H](N)C2)cc2nc(-c3cc4cccnc4n3CC3CC3)n(CC3CC(C)(O)C3)c12 (stereo partly shown) [Compound I-114] | < 1000 | > 6.00 | < 1000 | > 6.00 | – | –
8 | Cn1c(-c2cc3cccnc3n2CC2CC2)nc2cc(C(=O)N3CCC[C@@H](N)C3)cc(S(C)(=O)=O)c21 [Compound I-131, (3R)-1-{2-[1-(cyclopropylmethyl)-1H-pyrrolo[2,3-b]pyridin-2-yl]-7-methanesulfonyl-1-methyl-1H-1,3-benzodiazole-5-carbonyl}piperidin-3-amine] | 1000 to 10000 | 5.00 to 5.30 | 10000 to 100000 | < 5.00 | – | –
9 | COc1cc(C(=O)N2CC[C@@]3(CNCCC3(F)F)C2)cc2nc(-c3cc4cccnc4n3CC3CC3)n(C)c12 [Compound I-108] | 10000 to 100000 | < 5.00 | 10000 to 100000 | < 5.00 | – | –
10 | COc1cc(C(=O)N2CCC3OCCNC3C2)cc2nc(-c3cc4cccnc4n3CC3CC3)n(C)c12 (racemic) [Compound I-83] | 1000 to 10000 | 5.30 to 6.00 | 1000 to 10000 | 5.30 to 6.00 | – | –
11 | Cn1c(-c2cc3cccnc3n2CC2CC2)nc2cc(C(=O)N3CCCC4NCCC43)ccc21 (stereo not shown) [Compound I-52] | 10000 to 100000 | < 5.00 | 10000 to 100000 | < 5.00 | – | –
12 | COc1cc(C(=O)N2C[C@@H](N)CC[C@H]2C)cc2nc(-c3cc4cccnc4n3CC3CC3)n(C)c12 [Compound I-36] | < 1000 | > 6.00 | < 1000 | > 6.00 | – | –
13 | Cn1c(-c2cc3cccnc3n2CC2CC2)nc2cc(C(=O)N3CC[C@H](F)[C@@H](N)C3)ccc21 [Compound I-54] | 1000 to 10000 | 5.00 to 5.30 | 10000 to 100000 | < 5.00 | – | –
14 | COc1cc(C(=O)N2CC3(CCC3N)C2)cc2nc(-c3cc4cccnc4n3CC3CC3)n(C)c12 (stereo not shown) [Compound I-85] | 10000 to 100000 | < 5.00 | 10000 to 100000 | < 5.00 | – | –
15 | CCn1c(-c2nc3cc(C(=O)N4C[C@H]5CC[C@@H]4[C@@H]5N)ccc3n2C)cc2cccnc21 [Compound I-152] | 1000 to 10000 | 5.30 to 6.00 | 1000 to 10000 | 5.00 to 5.30 | – | –
16 | COc1cc(C(=O)N2CC[C@H]3CCN[C@H]3C2)cc2nc(-c3cc4cncnc4n3CC3CC3)n(C)c12 [Compound I-12, 5-[(3aR,7aR)-octahydro-1H-pyrrolo[2,3-c]pyridine-6-carbonyl]-2-[7-(cyclopropylmethyl)-7H-pyrrolo[2,3-d]pyrimidin-6-yl]-7-methoxy-1-methyl-1H-1,3-benzodiazole] | 1000 to 10000 | 5.30 to 6.00 | 10000 to 100000 | < 5.00 | – | –
17 | COCCn1c(-c2nc3cc(C(=O)N4CCC[C@@H](N)C4)cc(OC)c3n2C)cc2cccnc21 [Compound I-137] | 1000 to 10000 | 5.30 to 6.00 | 1000 to 10000 | 5.30 to 6.00 | – | –
18 | COc1cc(C(=O)N2C[C@@H](N)C[C@H](F)C2)cc2nc(-c3cc4cccnc4n3CC3CC3)n(C)c12 [Compound I-34] | < 1000 | > 6.00 | < 1000 | > 6.00 | – | –
19 | COc1cc(C(=O)N2CC3CC(N)C2C3)cc2nc(-c3cc4cccnc4n3CC3CC3)n(C)c12 (racemic) [Compound I-99] | > 100000 | < 5.00 | > 100000 | < 5.00 | – | –

Continued, values first:

Row | IC50 (hPAD4; pIC50=−log(IC50)) [nM] | pIC50 (hPAD4) | IC50 (mPAD4; pIC50=−log(IC50)) [nM] | pIC50 (mPAD4) | hPAD4 RFMS pIC50 (hPAD4; pIC50=−log(IC50)) | mPAD4 RFMS pIC50 (mPAD4; pIC50=−log(IC50)) | SMILES
20 | < 1000 | > 6.00 | < 1000 | > 6.00 | – | – | COc1cc(C(=O)N2C[C@H]3CC[C@@H]2[C@@H]3N)cc2nc(-c3cc4ccc(C(C)(C)O)nc4n3CC3CC3)n(C)c12 [Compound I-210, 2-(2-{5-[(1R,4R,7R)-7-Amino-2-azabicyclo[2.2.1]heptane-2-carbonyl]-7-methoxy-1-methyl-1H-1,3-benzodiazol-2-yl}-1-(cyclopropylmethyl)-1H-pyrrolo[2,3-b]pyridin-6-yl)propan-2-ol]
21 | 10000 to 100000 | < 5.00 | – | < 5.00 | – | E/F | COc1cc(C(=O)N2C[C@@H](N)CC[C@@H]2CO)cc2nc(-c3cc4cccnc4n3CC3CC3)n(C)c12 (single isomer, unassigned) [Compound I-227]
22 | 1000 to 10000 | 5.00 to 5.30 | 1000 to 10000 | 5.30 to 6.00 | – | – | COCCn1c(-c2nc3cc(C(=O)N4C[C@H](N)CC[C@@H]4C)cc(OC)c3n2C)cc2cccnc21 [Compound I-195]
23 | < 1000 | > 6.00 | < 1000 | > 6.00 | – | – | CCn1c(-c2nc3cc(C(=O)N4C[C@H]5CC[C@@H]4[C@@H]5N)cc(OC)c3n2C[C@H]2C[C@@](C)(OC)C2)cc2ccc(OC)nc21 [Compound I-206]
24 | 1000 to 10000 | 5.30 to 6.00 | 1000 to 10000 | 5.30 to 6.00 | – | – | COCCn1c(-c2nc3cc(C(=O)N4CCC[C@@H](N)C4)ccc3n2C)cc2ccc(OC)nc21 [Compound I-193]
25 | < 1000 | > 6.00 | < 1000 | > 6.00 | – | – | CCn1c(-c2nc3cc(C(=O)N4CCC[C@@H](N)C4)cc(OC)c3n2C)cc2ccc(C(F)(F)F)nc21 [Compound I-184]
26 | < 1000 | > 6.00 | < 1000 | > 6.00 | – | – | COc1cc(C(=O)N2C[C@H]3CC[C@@H]2[C@@H]3N)cc2nc(-c3cc4cc(F)cnc4n3CC3CC3)n(C)c12 [Compound I-222]
27 | < 1000 | > 6.00 | 1000 to 10000 | 5.30 to 6.00 | – | – | Cn1c(-c2cc3cccnc3n2CC2CC2)nc2cc(C(=O)N3CCC[C@@H](N)C3)cc(F)c21 [Compound I-166]
28 | < 1000 | > 6.00 | 1000 to 10000 | 5.30 to 6.00 | – | – | CCn1c(-c2nc3cc(C(=O)N4C[C@H]5CC[C@@H]4[C@@H]5N)cc(OC)c3n2CC2CCOCC2)cc2cccnc21 [Compound I-173]
29 | 1000 to 10000 | 5.30 to 6.00 | < 1000 | > 6.00 | – | – | COCCn1c(-c2cc3cccnc3n2CC2CC2)nc2cc(C(=O)N3CCC[C@@H](N)C3)cc(OC)c21 [Compound I-177]
30 | < 1000 | > 6.00 | < 1000 | > 6.00 | – | – | CCn1c(-c2nc3cc(C(=O)N4CCC[C@@H](N)C4)cc(OC)c3n2C)cc2ccc(OC(F)F)nc21 [Compound I-201]
31 | < 1000 | > 6.00 | < 1000 | > 6.00 | – | – | COc1cc(C(=O)N2C[C@H]3CC[C@@H]2[C@@H]3N)cc2nc(-c3cc4cccnc4n3CC3CC3)n(C[C@H]3C[C@@](C)(OC)C3)c12 [Compound I-181]
32 | < 1000 | > 6.00 | < 1000 | > 6.00 | – | – | CCn1c(-c2nc3cc(C(=O)N4C[C@H]5CC[C@@H]4[C@@H]5N)cc(OC)c3n2C)cc2cccnc21 [Compound I-159]
33 | < 1000 | > 6.00 | < 1000 | > 6.00 | – | – | CCn1c(-c2nc3cc(C(=O)N4CCC[C@@H](N)C4)cc(OC)c3n2C)cc2ccc(C)nc21 [Compound I-161]
34 | 1000 to 10000 | 5.30 to 6.00 | 1000 to 10000 | 5.30 to 6.00 | – | – | COc1cc(C(=O)N2C[C@H]3CC[C@@H]2[C@@H]3N)cc2nc(-c3cc4cccnc4n3CCF)n(C)c12 [Compound I-157]
